{"source": "patent US20050102708A1", "about": "“Animal model simulating neurologic disease” (priority 2003, published 2005)", "key": {"Long-Evans male rats": {"tested_on": "Long-Evans male rats", "experiment": "Morris watermaze memory retention test", "assay_type": "in vivo, rat", "settings": "four week infusion into the left ventricle, tested at end of perfusion period", "source_text": "Inducing a Neurologic Disease in a Non-Human Animal. Animals: Long-Evans male rats weighing 300-325 grams were housed following a natural day-night cycle with food and water ad libitum.\nMorris watermaze protocol: Before the surgery, the rats were trained on a standard Morris spatial navigation task in a black water tank (200 cm diameter). The water was rendered opaque by water-miscible non-toxic white paint (Crayola Inc.). The rats were placed in four different, randomly assigned, start positions and trained to find an invisible platform (20 cm diameter) at a fixed position in the middle of the water tank. The water temperature was about 24° C. A trial lasted until a rat found the platform or until 120 seconds elapsed. […] Rats were trained for four consecutive days, four trials a day, with 30 minutes between subsequent trials. Surgery procedures were performed on the fifth day. Rats were tested again for memory retention at the end of the four weeks-perfusion period.\nSurgical procedure: Anesthetized rats (equitesin, 3 ml/kg, i.p.) were placed on a stereotaxic frame. Using the electrode micromanipulator, the outlet of an osmotic micropump (Durect Corp., Cupertino, Calif.) was implanted into the left ventricle following the coordinates D=3.4 mm, L=1.4 mm and AP=0.92 mm prior to the bregma. […] During the whole procedure, the body temperature was monitored and kept stable at 37° C. […]"}, "[1]": {"tested_on": "Hyperphosphorylated Tau protein", "experiment": "ELISA of hyperphosphorylated Tau protein in CSF", "assay_type": "in vivo, rat", "settings": "rats, four week infusion into the left ventricle", "protocol": "Surgical procedure: Anesthetized rats (equitesin, 3 ml/kg, i.p.) were placed on a stereotaxic frame. Using the electrode micromanipulator, the outlet of an osmotic micropump (Durect Corp., Cupertino, Calif.) was implanted into the left ventricle following the coordinates D=3.4 mm, L=1.4 mm and AP=0.92 mm prior to the bregma. The tank of the osmotic pump was implanted in a subcutaneous pocket in the midscapular area of the back of the rat. After surgery rats were put on a heating blanket for recovery. During the whole procedure, the body temperature was monitored and kept stable at 37° C.\nPerfusion: Rats were divided into six groups regarding the composition of the solution contained in the osmotic micropump tank, as provided in Table 1. Group I served as the control group and received only artificial cerebrospinal fluid (“CSF”).\nELISA: Hyperphosphorylated Tau protein was measured in the CSF using the Elisa kit INNOTEST™ (Innogenetics, Belgium)."}}, "data": [{"substance": "β42-amyloid peptide [Aβ42]", "values": [{"measurement": "memory impairment / latency to retrieve the platform in the Morris watermaze test", "setting": "Long-Evans male rats", "value": "not sufficient to induce memory impairment"}, {"measurement": "phosphorylated Tau protein in the CSF", "setting": "[1]", "value": "not sufficient to induce"}]}]}
